The test system of one data set is beta amyloid production. Briefly: Repressor Release Assay (RRA). In kind it is cell-based. As to conditions: for APPI % of Example #98: relative to Example 98. Summed up:
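CHO-K1 cells transiently co-transfected with pRSVO-luc and an APP-lacI construct, replated, then treated in duplicate for 36-48 h at 37 °C, 5% CO2. Compounds diluted in 25 mM Hepes, with Hepes/1% DMSO as diluent control. Luciferase read-out in relative light units; toxicity scored 1 non-toxic, 0 toxic.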

Another data set has as its system CHO-K1 cells. Nature of the data set: Toxicity in RRA (loss of luciferase signal). As to conditions: toxicity = loss of signal (<0.75 fold increase).
Where [1] appears, read: Conc 20 μg/ml, luciferase activity (RLU) over diluent control, read-out: APPI Fold Increase.
The mark [2] stands for this setting: Conc 20 μg/ml, 1=non-toxic, 0=toxic.
Where [3] appears, read: Conc 10 μg/ml, luciferase activity over diluent control, read-out: APPI Fold Increase.
Setting [4] is: Conc 20 μg/ml, luciferase activity over diluent control, read-out: APPI Fold Increase.

Like-named read-outs stand apart in the source and are kept apart here.

Description for CHO-K1 cells: The beta amyloid inhibitory activity of the compounds of the present invention was determined using the Repressor Release Assay (RRA).
“Fold Increase” refers to the amount of luciferase activity (measured in relative light units) over diluent control. “SEM” refers to the standard error of the mean for fold increase.

Turning to `CC(C)C[C@@H](c1ccco1)[C@@H](CO)NS(=O)(=O)c1ccc(Cl)cc1` [Example 67, 4-chloro -N-[(1S,2R)-2-(2-furyl)-1-(hydroxymethyl)-4-methylpentyl]benzenesulfonamide], the fold induction at 20 µg/mL with beta amyloid production (setting [1]) came to 3.9. Further, in the data set on CHO-K1 cells (setting [2]), the “(%)APPI Toxicity” value is on record as 1 (1=non-toxic).

`CCC[C@H](CC)[C@@H](CO)NS(=O)(=O)c1ccc(Cl)cc1` [Example 55, 4-chloro-N-[(1S,2S)-2-ethyl-1-(hydroxymethyl)pentyl]benzenesulfonamide]: the fold induction at 20 µg/mL with beta amyloid production (setting [1]) amounted to 5.6. Besides, the “(%)APPI Toxicity” value with CHO-K1 cells (setting [2]) was 1 (1=non-toxic).

For the compound `C=CCCC(O)(CCC=C)[C@@H](NS(=O)(=O)c1ccc(F)cc1)[C@@H](C)CC` [Example 246, N-{(1S)-2-(3-butenyl)-2-hydroxy-1-[(1S)-1-methylpropyl]-5-hexenyl}-4-fluorobenzenesulfonamide], the fold induction at 10 µg/mL in the data set with beta amyloid production (setting [3]) stood at 2.42. The fold induction at 20 µg/mL with beta amyloid production (setting [4]) turned out to be 1.9. The “(%)APPI Toxicity” value in the data set on CHO-K1 cells (Conc 10 μg/ml) and in the data set on CHO-K1 cells (Conc 20 μg/ml) was 1 (1=non-toxic) throughout.

`CC[C@H](C)[C@@H](CO)N(CC1CCC1)S(=O)(=O)c1ccc(Cl)cc1` [Example 44, 4-chloro-N-(cyclobutylmethyl)-N-[(1S,2S)-1-(hydroxymethyl)-2-methylbutyl] benzenesulfonamide]: the “APPI Fold Increase” value in the data set on beta amyloid production (Conc 20 μg/ml, luciferase activity over diluent control) is on record as 2.6 fold. Moreover, the “APPI % of Example #98” value in the data set with beta amyloid production (Conc 20 μg/ml) turned out to be 95.7%. Moreover, in the data set with CHO-K1 cells (Conc 20 μg/ml), the “(%)APPI Toxicity” value is reported as 1 (1=non-toxic).

For `CC[C@H](C)[C@H](NS(=O)(=O)c1cccc(Cl)c1)C(O)c1ccc(Cl)cc1` (stereo partly drawn) [Example 196, 3-chloro-N-{(1S,2S)-1-[(4-chlorophenyl)(hydroxy)methyl]-2-methylbutyl}benzenesulfonamide], in the data set on beta amyloid production (setting [3]), the fold induction at 10 µg/mL worked out at 1.78. Further, in the data set with CHO-K1 cells (Conc 10 μg/ml), the “(%)APPI Toxicity” value is 1 (1=non-toxic).

Consider `CC[C@@H](C)[C@@H](CO)NS(=O)(=O)c1ccc(Cl)cc1` [Example 39, 4-chloro-N-[(1S,2R)-1-(hydroxymethyl)-2-methylbutyl]benzenesulfonamide], for which the fold induction at 3 µg/mL with beta amyloid production (Conc 3 μg/ml, luciferase activity over diluent control, read-out: APPI Fold Increase) amounted to 1.56. The fold induction at 10 µg/mL with beta amyloid production (setting [3]) is 2.47. Besides, the fold induction at 20 µg/mL with beta amyloid production (setting [4]) amounted to 5.5. Besides, the “(%)APPI Toxicity” value with CHO-K1 cells (Conc 3 μg/ml), with CHO-K1 cells (Conc 10 μg/ml) and with CHO-K1 cells (Conc 20 μg/ml) was 1 (1=non-toxic) each time.

Regarding `CC[C@H](C)[C@H](NS(=O)(=O)c1ccc(Br)cc1)C(C)(C)O` [Example 211], the fold induction at 10 µg/mL in the data set with beta amyloid production (setting [3]) turned out to be 2.09. The “(%)APPI Toxicity” value with CHO-K1 cells (Conc 10 μg/ml) is given as 1 (1=non-toxic).

Take `CCC(O)[C@@H](NS(=O)(=O)c1ccc(F)cc1)[C@@H](C)CC` (stereo partly drawn) [Example 135, 4-fluoro-N-{(1S)-2-hydroxy-1-[(1S)-1-methylpropyl]butyl}benzenesulfonamide]: in the data set with beta amyloid production (setting [3]), the fold induction at 10 µg/mL stood at 1.91. For the same compound, the “(%)APPI Toxicity” value in the data set with CHO-K1 cells (Conc 10 μg/ml) is given as 1 (1=non-toxic).

For the compound `CCCCC[C@H](CC)[C@@H](CO)NS(=O)(=O)c1ccc(Cl)cc1` [Example 61, 4-chloro-N-[(1S,2S)-2-ethyl-1-(hydroxymethyl)-heptyl]benzenesulfonamide], the fold induction at 20 µg/mL in the data set on beta amyloid production (setting [1]) was 6.5. The “(%)APPI Toxicity” value in the data set with CHO-K1 cells (setting [2]) is reported as 1 (1=non-toxic).

`C=CCC(O)(CC=C)[C@@H](NS(=O)(=O)c1ccc(F)cc1)[C@@H](C)CC` [Example 241, N-{(1S)-2-allyl-2-hydroxy-1-[(1S)-1-methylpropyl]-4-pentenyl}-4-fluoro benzenesulfonamide]: the “APPI Fold Increase” value with beta amyloid production (Conc 10 μg/ml, luciferase activity over diluent control) was 1.58 fold. Moreover, in the data set with beta amyloid production (Conc 10 μg/ml), the “APPI % of Example #98” value is listed as 72.82%. Besides, the “(%)APPI Toxicity” value with CHO-K1 cells (Conc 10 μg/ml) is recorded as 1 (1=non-toxic).

Regarding `CC[C@H](C)[C@H](NS(=O)(=O)c1ccc(Cl)cc1)C(O)C(C)(C)C` (stereo partly drawn) [Example 172, 4-chloro-N-{(1S)-2-hydroxy-3,3-dimethyl-1-[(1S)-1-methylpropyl]butyl}benzenesulfonamide], the fold induction at 10 µg/mL in the data set with beta amyloid production (setting [3]) turned out to be 2.51. For the same compound, the “(%)APPI Toxicity” value in the data set on CHO-K1 cells (Conc 10 μg/ml) is 1 (1=non-toxic).

The values are drawn from patent publication US7166622B2, “Substituted phenylsulfonamide inhibitors of beta amyloid production” (Wyeth, priority 2002, dated 2007).
